Key:
[1] = target: Hepatitis C Virus NS3/4A protease V36M (Hepatitis C virus genotype 1b, UniProt O92972, V1062M); experiment: HCV NS3/4A protease FRET assay, V36M; type: biochemical
[2] = target: Hepatitis C Virus NS3/4A protease A156T (Hepatitis C virus genotype 1b, UniProt O92972, A1182T); experiment: biochemical
[3] = test system: Hepatitis C Virus NS3/4A protease A156T; experiment: biochemical; conditions: A156T vs Wild Type
[4] = target: Hepatitis C Virus NS3/4A protease D168A (Hepatitis C virus genotype 1b, UniProt O92972, D1194A); experiment: biochemical
Thrombin = target: T1, Thrombin (Homo sapiens, UniProt P00734); experiment: Inhibition of human proteases: thrombin; type: biochemical
T1 construct: purchased Anaspec
Protocol: In an effort to circumvent similar toxicities, new protease inhibitors were evaluated for inhibition of a panel of important human proteases. The enzymes tested are Elastase (Neutrophil), Plasmin, Thrombin, and Cathepsin S.
Plasmin and Thrombin(Sensolyte RH110 Plasmin Activity Assay Kit and Sensolyte Thrombin Activity Assay Kit (Anaspec)): Reactions were conducted in a sample volume of 100 μL per well in a black 96 well plate. Protocol A was followed from the kit insert where the 2× assay buffer was diluted 1:1 with deionized water. Included in each assay were a positive control (diluted enzyme and no test compound), inhibitor control (contains diluted enzyme and plasmin inhibitor; component E from the kit or thrombin inhibitor; N-α-NAPAP synthetic inhibitor) and substrate control (assay buffer and substrate). Vehicle and autofluorescence controls were also performed. Drug dilutions were added (10 μL) at 10× concentrations in assay buffer. The enzyme was added at 40 μL/well at a concentration of 0.25 μg/mL (plasmin) and 1 μg/mL (thrombin) to all wells except the substrate control. Finally, 50 μL assay buffer containing substrate was added to each well. […] The fluorescence intensity was read on the Victor 3 plate reader at Ex/Em=490 nm/520 nm. […] Results are shown as substrate control adjusted percentages of maximum absorbance, which was given by the positive control.

Chain of Hepatitis C Virus NS3/4A protease V36M (O92972 1027-1657 V1062M): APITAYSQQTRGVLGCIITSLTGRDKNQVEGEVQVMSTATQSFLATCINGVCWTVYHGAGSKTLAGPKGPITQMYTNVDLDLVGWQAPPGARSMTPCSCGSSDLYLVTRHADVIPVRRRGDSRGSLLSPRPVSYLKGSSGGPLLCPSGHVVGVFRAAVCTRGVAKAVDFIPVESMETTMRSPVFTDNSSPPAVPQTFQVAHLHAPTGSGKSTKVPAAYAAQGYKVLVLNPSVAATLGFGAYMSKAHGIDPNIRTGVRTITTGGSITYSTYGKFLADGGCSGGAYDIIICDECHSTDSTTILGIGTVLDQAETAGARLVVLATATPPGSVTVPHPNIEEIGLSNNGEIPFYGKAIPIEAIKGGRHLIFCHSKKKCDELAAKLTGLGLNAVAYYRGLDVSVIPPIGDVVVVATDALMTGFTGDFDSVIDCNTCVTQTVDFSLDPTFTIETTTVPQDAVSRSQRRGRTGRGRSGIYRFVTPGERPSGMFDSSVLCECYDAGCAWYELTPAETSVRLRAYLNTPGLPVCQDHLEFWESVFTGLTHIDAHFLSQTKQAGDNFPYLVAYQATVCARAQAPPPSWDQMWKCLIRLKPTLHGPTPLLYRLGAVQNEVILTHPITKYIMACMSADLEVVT
Chain of Hepatitis C Virus NS3/4A protease V36M (O92972 1658-1711 partner limits assumed): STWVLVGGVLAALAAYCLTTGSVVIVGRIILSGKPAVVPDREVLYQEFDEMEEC
Chain of Hepatitis C Virus NS3/4A protease A156T (Hepatitis C virus genotype 1b, UniProt O92972, A1182T) (O92972 1027-1657 A1182T): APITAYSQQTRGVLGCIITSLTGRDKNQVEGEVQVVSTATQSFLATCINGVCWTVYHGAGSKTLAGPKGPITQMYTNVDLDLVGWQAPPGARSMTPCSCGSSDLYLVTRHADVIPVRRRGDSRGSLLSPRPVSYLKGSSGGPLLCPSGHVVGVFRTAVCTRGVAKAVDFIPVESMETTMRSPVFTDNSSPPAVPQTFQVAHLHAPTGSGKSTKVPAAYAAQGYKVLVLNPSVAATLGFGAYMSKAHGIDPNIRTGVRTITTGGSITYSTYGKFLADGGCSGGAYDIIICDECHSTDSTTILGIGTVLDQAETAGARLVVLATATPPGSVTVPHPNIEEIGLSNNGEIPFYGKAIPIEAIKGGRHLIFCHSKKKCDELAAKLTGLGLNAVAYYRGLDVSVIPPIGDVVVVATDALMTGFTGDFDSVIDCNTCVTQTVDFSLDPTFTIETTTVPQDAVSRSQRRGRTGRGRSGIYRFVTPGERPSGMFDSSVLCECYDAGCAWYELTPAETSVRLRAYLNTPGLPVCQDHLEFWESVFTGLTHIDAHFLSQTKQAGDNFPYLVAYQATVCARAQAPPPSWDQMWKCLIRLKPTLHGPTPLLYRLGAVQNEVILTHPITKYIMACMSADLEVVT
Chain of Hepatitis C Virus NS3/4A protease A156T (Hepatitis C virus genotype 1b, UniProt O92972, A1182T) (O92972 1658-1711 partner limits assumed): as the sequence (O92972 1658-1711 partner limits assumed) above
Chain of Hepatitis C Virus NS3/4A protease D168A (O92972 1027-1657 D1194A): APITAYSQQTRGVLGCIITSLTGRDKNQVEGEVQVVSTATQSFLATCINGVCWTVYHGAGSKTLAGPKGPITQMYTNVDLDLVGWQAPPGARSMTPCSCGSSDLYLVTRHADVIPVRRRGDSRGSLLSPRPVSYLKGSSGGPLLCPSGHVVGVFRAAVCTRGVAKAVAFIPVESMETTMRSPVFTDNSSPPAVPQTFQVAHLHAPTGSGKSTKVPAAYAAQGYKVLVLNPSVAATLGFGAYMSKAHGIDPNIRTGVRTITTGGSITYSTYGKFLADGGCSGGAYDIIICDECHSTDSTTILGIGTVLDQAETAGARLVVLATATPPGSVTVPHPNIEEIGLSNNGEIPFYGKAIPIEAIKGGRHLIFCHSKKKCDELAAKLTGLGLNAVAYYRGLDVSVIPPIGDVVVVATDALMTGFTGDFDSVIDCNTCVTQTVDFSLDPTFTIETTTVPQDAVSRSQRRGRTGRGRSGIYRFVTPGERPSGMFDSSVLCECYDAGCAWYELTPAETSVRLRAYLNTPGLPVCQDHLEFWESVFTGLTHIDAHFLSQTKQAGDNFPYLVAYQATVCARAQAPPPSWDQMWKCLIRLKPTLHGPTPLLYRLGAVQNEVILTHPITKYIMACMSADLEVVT
Chain of Hepatitis C Virus NS3/4A protease D168A (O92972 1658-1711 partner limits assumed): as the sequence (O92972 1658-1711 partner limits assumed) above

For `C=C[C@@H]1C[C@]1(NC(=O)[C@@H]1C[C@@H](OC(=O)N2Cc3cccc(F)c3C2)CN1C(=O)[C@@H](NC(=O)OC(C)(C)C)C(C)(C)C)C(=O)NS(=O)(=O)C1CC1` [Compound 10], the “Fold Increase of EC50” value ([1]; V36M vs Wild Type) was 0.7, the “Fold Increase of EC90” value ([1]; V36M vs Wild Type) was 1.5 and the EC50 ([1]; V36M, read-out: Anti-HCV protease activity EC50) was 3.4 nM. It also gave an EC90 ([1]; V36M, read-out: Anti-HCV protease activity EC90) of 45.5 nM, an EC50 [2] of 33 nM and an EC90 ([2]; A156T, read-out: Anti-HCV protease activity EC90) of 130 nM. For the same compound, the “Fold Increase of EC50” value [3] was 6.7, the “Fold Increase of EC90” value [3] was 4.4 and the EC50 [4] was 570 nM. For the same compound, the EC90 ([4]; D168A, read-out: Anti-HCV protease activity EC90) was 8300 nM and the IC50 (Thrombin) was over 100000 nM.

From patent US8729014B2, “Specific HCV NS3 protease inhibitors” (RFS Pharma, LLC, priority 2010, dated 2014)
